Experimental data taken from patent US12091402B2 (Avilar Therapeutics, Inc., priority 2021, dated 2024).
Like-named read-outs stand apart in the source and are kept apart here. Each block holds one compound with its values, some of them ahead of it.

Columns and labels:
IgG = assay: Affinity to IgG by surface plasmon resonance (SPR); type: binding
Description: Immobilization levels ranging from 1000-1300 resonance units (RU) are obtained. The running buffer is 10 mM HEPES, pH 7.4, 400 mM NaCl, 0.005% P20, […].

[1] = biological target: T1, ASGPR receptor on the cell surface (HepG2 cells) (Homo sapiens, UniProt P07306); assay: Ternary complex formation assay (flow cytometry, HepG2); type: cell-based
T1 construct: host or cells: HepG2
T1 sequence (P07306 1-291): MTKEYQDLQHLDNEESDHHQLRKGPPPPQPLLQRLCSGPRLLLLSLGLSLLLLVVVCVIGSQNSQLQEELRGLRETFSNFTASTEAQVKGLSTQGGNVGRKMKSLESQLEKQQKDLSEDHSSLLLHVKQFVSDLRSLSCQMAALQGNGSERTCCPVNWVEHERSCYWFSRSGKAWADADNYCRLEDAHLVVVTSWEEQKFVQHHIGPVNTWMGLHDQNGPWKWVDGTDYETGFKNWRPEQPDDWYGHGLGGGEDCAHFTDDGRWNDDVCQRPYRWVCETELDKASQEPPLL
T1 sequence (P07307 1-311 partner): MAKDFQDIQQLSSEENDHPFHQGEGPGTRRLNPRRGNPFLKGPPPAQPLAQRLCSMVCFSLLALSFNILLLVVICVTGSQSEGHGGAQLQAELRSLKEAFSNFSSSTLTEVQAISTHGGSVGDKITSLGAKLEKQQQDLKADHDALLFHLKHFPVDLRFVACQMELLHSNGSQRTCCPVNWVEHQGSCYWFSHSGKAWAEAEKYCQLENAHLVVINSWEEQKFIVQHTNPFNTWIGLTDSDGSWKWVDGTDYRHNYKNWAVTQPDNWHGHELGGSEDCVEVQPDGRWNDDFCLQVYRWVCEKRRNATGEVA
Description: The ternary complex formation assay is designed to identify the concentration of Degrader required to form a complex between the degrader, a constant concentration of fluorescently-labeled antibody and the ASGPR receptor on the cell surface. The peak mean fluorescence intensity (MFI) occurs at the optimal degrader concentration for ternary complex formation. Sub-optimal concentrations of degrader (too much or too little) results in fewer complexes formed and a reduced […].
Human IgG (Sigma-Aldrich, 14506) was covalently labeled with Alexa Fluor 488 using the Alexa Fluor™ 488 Protein Labeling Kit (Thermo Fisher, A10235) following the manufacturer's instructions. HepG2 cells (ATCC, HIB-8065) were cultured to about 70% confluence and harvested by trypsinization. Single cell suspensions of HepG2 cells were plated in 96 well plates at 1×10^5 cells/well in cell culture media (DMEM supplemented with […]) and placed at 4° C. For studies using human IgG, cells were incubated with 100 nM AF488-labeled anti-human IgG and serial dilutions of IgG-based degrader for 1 hour at 4° C. For studies using DNP, cells were incubated with 100 nM AF488-labeled polyclonal rabbit anti-dinitrophenyl (DNP) antibodies (ThermoFisher) and serial dilutions of DNP-based degrader for 1 hour at 4° C. After washing once with ice-cold PBS containing 0.1% BSA and 0.1% sodium azide, cells were resuspended in 150 uL PBS+0.1% BSA and cell-associated AF488 fluorescence was measured by flow cytometry using the iQue® Screener PLUS Flow Cytometer (IntelliCyt).

ASGPR = biological target: T2, ASGPR (Homo sapiens, UniProt P07306); assay: Affinity to ASGPR by surface plasmon resonance (SPR)
T2 sequence (P07306 1-291): T1 sequence (P07306 1-291)

HepG2 cells = assay: Cellular uptake assay of AF488-labeled antibody (HepG2); type: cell-based; conditions: HepG2 cells
Description: The cellular uptake assay is designed to measure compound-mediated cellular uptake of fluorescently labeled antibody following ternary complex formation with the ASGPR receptor and endocytosis of the entire complex into cells.
Human IgG (Sigma-Aldrich, 14506) was covalently labeled with Alexa Fluor 488 using the Alexa Fluor™ 488 Protein Labeling Kit (Thermo Fisher, A10235) following the manufacturer's instructions. HepG2 cells were plated in DMEM supplemented with 10% FBS at 5,000 cells per well in a 96-well microtiter plate and incubated for approximately 18 hours at 37° C./5% CO2. For studies using human IgG, 100 nM AF488-labeled human IgG antibodies and serial dilutions of IgG-based degrader (0.1% DMSO final concentration) were added to the cells and the mixture was incubated at 37° C. for 6 hours. For studies using DNP, 100 nM AF488-labeled DNP antibodies and serial dilutions of DNP-based degrader (0.1% DMSO final concentration) were added to the cells and the mixture was incubated at 37° C. for 6 hours. HepG2 cells were fixed in 100% methanol at −20° C. for 20 min, washed 3× with PBS, then stained with DAPI (Thermo, Cat #H3570). HepG2 cells were imaged for DAPI and Alexa Fluor 488 using the Operetta CLS, high-content analysis system (PerkinElmer). Data is presented as the ratio of the number of cells positive for hIgG or DNP (AF-488 fluorescence) over the total cell number (measured by DAPI).

[2] = Biacore 8K, 25° C., IgG on CM5 chip, read-out: IgG SPR Binding Kd
[3] = 100 nM AF488-labeled antibody, 37° C. for 6 hours, class symbols, read-out: Uptake Assay EC50

- Kd (IgG; [2]): < 100 nM
- EC50 ([1]; HepG2 cells, 100 nM AF488-labeled antibody, 1 hour at 4° C., class symbols, read-out: Ternary Complex EC50): < 100 nM
Structure (SMILES): CC(C)C[C@@H]1NC(=O)[C@H](Cc2cnc[nH]2)NC(=O)[C@H](Cc2c[nH]c3ccccc23)NC(=O)[C@H](C)NC(=O)[C@@H]2CSSC[C@H](NC(=O)[C@H](Cc3c[nH]c4ccccc34)NC(=O)[C@H](C(C)C)NC(=O)[C@H](CC(C)C)NC(=O)[C@H](CCC(=O)O)NC(=O)CNC1=O)C(=O)N[C@@H]([C@@H](C)O)C(=O)N1CCC[C@@H]1C(=O)N1C[C@@H](NC(=O)COCCOCCOCCOC[C@H]3OC[C@H](Nc4nccc(C(F)(F)F)n4)[C@@H](O)[C@H]3O)C[C@H]1C(=O)N[C@@H](CC(=O)O)C(=O)N2 [Compound 60]

- Kd (ASGPR): < 100 nM
- EC50 ([1]; HepG2 cells, ternary complex formation, read-out: TCF EC50): < 100 nM
Structure (SMILES): CC(C)C[C@@H]1NC(=O)[C@H](Cc2c[nH]cn2)NC(=O)[C@H](Cc2c[nH]c3ccccc23)NC(=O)[C@H](C)NC(=O)[C@@H]2CSSC[C@H](NC(=O)[C@H](Cc3c[nH]c4ccccc34)NC(=O)[C@H](C(C)C)NC(=O)[C@H](CC(C)C)NC(=O)[C@H](CCC(=O)O)NC(=O)CNC1=O)C(=O)N[C@@H]([C@@H](C)O)C(=O)N1CCC[C@@H]1C(=O)N1C[C@@H](NC(=O)CCOCCOCCOCCOCCNC(=O)CCCc3cn(CCCCCC(=O)NC(COCCC(=O)NCCOCCOCCOCCOC[C@H]4OC[C@H](Nc5nccc(C(F)(F)F)n5)[C@@H](O)[C@H]4O)(COCCC(=O)NCCOCCOCCOCCOC[C@H]4OC[C@H](Nc5nccc(C(F)(F)F)n5)[C@@H](O)[C@H]4O)COCCC(=O)NCCOCCOCCOCCOC[C@H]4OC[C@H](Nc5nccc(C(F)(F)F)n5)[C@@H](O)[C@H]4O)nn3)C[C@H]1C(=O)N[C@@H](CC(=O)O)C(=O)N2 [Compound 86]

Structure (SMILES): CC(C)C[C@@H]1NC(=O)[C@H](Cc2c[nH]cn2)NC(=O)[C@H](Cc2c[nH]c3ccccc23)NC(=O)[C@H](C)NC(=O)[C@@H]2CSSC[C@H](NC(=O)[C@H](Cc3c[nH]c4ccccc34)NC(=O)[C@H](C(C)C)NC(=O)[C@H](CC(C)C)NC(=O)[C@H](CCC(=O)O)NC(=O)CNC1=O)C(=O)N[C@@H]([C@@H](C)O)C(=O)N1CCC[C@@H]1C(=O)N1C[C@@H](NC(=O)CNC(COCCC(=O)NCCOCCOCCOCCOC[C@@]34CO[C@@H](O3)[C@H](Nc3cncc(C(F)(F)F)n3)[C@@H](O)[C@H]4O)COCCC(=O)NCCOCCOCCOCCOC[C@@]34CO[C@@H](O3)[C@H](Nc3cncc(C(F)(F)F)n3)[C@@H](O)[C@H]4O)C[C@H]1C(=O)N[C@@H](CC(=O)O)C(=O)N2 [Compound 73]
- EC50 [1]: < 100 nM
- EC50 (HepG2 cells; read-out: Uptake EC50): 500 to 1000 nM

Structure (SMILES): CC(C)C[C@@H]1NC(=O)[C@H](Cc2c[nH]cn2)NC(=O)[C@H](Cc2c[nH]c3ccccc23)NC(=O)[C@H](C)NC(=O)[C@@H]2CSSC[C@H](NC(=O)[C@H](Cc3c[nH]c4ccccc34)NC(=O)[C@H](C(C)C)NC(=O)[C@H](CC(C)C)NC(=O)[C@H](CCC(=O)O)NC(=O)CNC1=O)C(=O)N[C@@H]([C@@H](C)O)C(=O)N1CCC[C@@H]1C(=O)N1C[C@@H](NC(=O)CCOCCOCCOCCOCCNC(=O)CCCc3cn(C[C@@]45CO[C@@H](O4)[C@H](Nc4nc(Cl)ns4)[C@@H](O)[C@H]5O)nn3)C[C@H]1C(=O)N[C@@H](CC(=O)O)C(=O)N2 [Compound 15]
- Kd (IgG; [2]): < 100 nM
- EC50 (HepG2 cells; [3]): 100 to 500 nM

- EC50 ([1]; HepG2 cells, 100 nM AF488-labeled antibody, 1 hour at 4° C., numeric bounds, read-out: Ternary Complex EC50): > 10000 nM
Structure (SMILES): O=C(CCOCC(COCCC(=O)NCCOCCOCCOCCOC[C@@]12CO[C@@H](O1)[C@H](NC(=O)C(F)(F)F)[C@@H](O)[C@H]2O)NC(=O)COCCOCCOCCNc1ccccc1)NCCOCCOCCOCCOC[C@@]12CO[C@@H](O1)[C@H](NC(=O)C(F)(F)F)[C@@H](O)[C@H]2O [A12, 3,3′-((2-(2-(2-(2-(2-(phenylamino)ethoxy)ethoxy)ethoxy)acetamido)propane-1,3-diyl)bis(oxy))bis(N-(1-((1S,2R,3R,4R,5S)-2,3-dihydroxy-4-(2,2,2-trifluoroacetamido)-6,8-dioxabicyclo[3.2.1]octan-1-yl)-2,5,8,11-tetraoxatridecan-13-yl)propanamide)]

Structure (SMILES): CC(C)C[C@@H]1NC(=O)[C@H](Cc2c[nH]cn2)NC(=O)[C@H](Cc2c[nH]c3ccccc23)NC(=O)[C@H](C)NC(=O)[C@@H]2CSSC[C@H](NC(=O)[C@H](Cc3c[nH]c4ccccc34)NC(=O)[C@H](C(C)C)NC(=O)[C@H](CC(C)C)NC(=O)[C@H](CCC(=O)O)NC(=O)CNC1=O)C(=O)N[C@@H]([C@@H](C)O)C(=O)N1CCC[C@@H]1C(=O)N1C[C@@H](NC(=O)CNC(COCCC(=O)NCCOCCOCCOCCOC[C@H]3OC[C@H](Nc4cncc(C(F)(F)F)n4)[C@@H](O)[C@H]3O)COCCC(=O)NCCOCCOCCOCCOC[C@H]3OC[C@H](Nc4cncc(C(F)(F)F)n4)[C@@H](O)[C@H]3O)C[C@H]1C(=O)N[C@@H](CC(=O)O)C(=O)N2 [Compound 74]
- Kd (IgG; SPR, read-out: IgG KD): < 100 nM
- EC50 (HepG2 cells; read-out: Uptake EC50): < 100 nM

Structure (SMILES): CC(C)C[C@@H]1NC(=O)[C@H](Cc2cnc[nH]2)NC(=O)[C@H](Cc2c[nH]c3ccccc23)NC(=O)[C@H](C)NC(=O)[C@@H]2CSSC[C@H](NC(=O)[C@H](Cc3c[nH]c4ccccc34)NC(=O)[C@H](C(C)C)NC(=O)[C@H](CC(C)C)NC(=O)[C@H](CCC(=O)O)NC(=O)CNC1=O)C(=O)N[C@@H]([C@@H](C)O)C(=O)N1CCC[C@@H]1C(=O)N1C[C@H](NC(=O)CNC(COCCC(=O)NCCOCCOCCOCCOC[C@H]3OC[C@H](Nc4cncc(C(F)(F)F)n4)[C@@H](O)[C@H]3O)COCCC(=O)NCCOCCOCCOCCOC[C@H]3OC[C@H](Nc4cncc(C(F)(F)F)n4)[C@@H](O)[C@H]3O)C[C@H]1C(=O)N[C@@H](CC(=O)O)C(=O)N2 [Compound 92]
- Kd (IgG; SPR, read-out: IgG KD): < 100 nM
- EC50 (HepG2 cells; read-out: Uptake EC50): < 100 nM

Structure (SMILES): CC(C)C[C@@H]1NC(=O)[C@H](Cc2c[nH]cn2)NC(=O)[C@H](Cc2c[nH]c3ccccc23)NC(=O)[C@H](C)NC(=O)[C@@H]2CSSC[C@H](NC(=O)[C@H](Cc3c[nH]c4ccccc34)NC(=O)[C@H](C(C)C)NC(=O)[C@H](CC(C)C)NC(=O)[C@H](CCC(=O)O)NC(=O)CNC1=O)C(=O)N[C@@H]([C@@H](C)O)C(=O)N1CCC[C@@H]1C(=O)N1C[C@@H](NC(=O)CCOCCOCCNC(=O)CCCc3cn(CCCCCC(=O)NC(COCCC(=O)NCCOCCOCCOCCOC[C@@]45CO[C@@H](O4)[C@H](Nc4nc(Cl)ns4)[C@@H](O)[C@H]5O)COCCC(=O)NCCOCCOCCOCCOC[C@@]45CO[C@@H](O4)[C@H](Nc4nc(Cl)ns4)[C@@H](O)[C@H]5O)nn3)C[C@H]1C(=O)N[C@@H](CC(=O)O)C(=O)N2 [Compound 17]
- Kd (IgG; [2]): < 100 nM
- EC50 (HepG2 cells; [3]): < 100 nM
